Experimental data as given in US20070059319A1, “Methods of screening for immuno-adjuvants and vaccines comprising anti-microtubule immuno-adjuvants” (Caliper Life Sciences, Inc., priority 2005, published 2007).

System: human monocytes (THP-1 cell line)
Experiment: multiplex functional cell-based HTS assay (5-plex): expression of co-stimulatory molecules and cytokines by THP-1 monocytes
Parameters: IL-8 / RANTES / TNFα: unit not given here
Conditions: THP-1 cells incubated overnight with 10^-5M test compound; for IL-8 / RANTES / TNFα: concentration in cell culture supernatant, Luminex, mean of two wells; for CD54 / CD80: flow cytometry, specific staining (MFI minus isotype control MFI)
Method: Test compounds/candidate agents were diluted in 100% DMSO at a concentration of 10^−2M and stored in 96 well “matrix” plates at −80° C. These compound stocks were employed as a pool of mother plates. Compounds to be assayed were diluted 100 times in sterile PBS using a liquid handling robot “Evolution P3” (PerkinElmer) to a concentration of 10^−4M, and stored at −20° C. until they were used for the assay. In total, 20,000 candidate agents were tested.
10^5 THP-1 cells were incubated overnight with 10^−5M of test compound (20 μl of 10^−4M compound stock solution was added to 180 μl of the cells suspension). Incubations were carried out in U bottom 96 well tissue culture plates. Each compound was tested in duplicate. Collection of the cell culture supernatants and cell surface receptor staining were carried out using the “Biomek 2000” liquid handling robot (Becton Coulter).
Expression of cell surface receptors was analyzed by flow cytometry using the following antibodies: PE-conjugated anti-human CD80 and APC conjugated anti-human CD54 (ICAM-1) and matching labeled isotype controls, all from BD Pharmingen. Cells in the first well of each duplicate were stained with isotype controls (IC). In the second well, cells were stained with CD80 and CD54 antibodies. Stained cells were analyzed on a flow cytometer (FACSArray cytometer (BD Pharmingen)). The mean fluorescence intensity (MFI) for IC and CD80/CD54 antibodies stained cells were determined using “FlowJo” software (Tree Star, Inc.). The IC MFIs were subtracted from CD80/CD54 MFIs and results were recorded as specific staining and used for the following data analysis.
The concentrations of IL-8, RANTES and TNFα in cell culture supernatants were determined for each well of the duplicates using the “Fluorokine MultiAnalyte Profiling” kits (R&D Systems). Samples were analyzed on the Luminex 100IS system and data analysis was performed using Luminex 2.3IS software (both from Luminex corporation). The mean value of two wells was recorded and used for the following data analysis.
To identify agents that stimulate the innate immune system, a multiplex functional cell-based assay was used. The assay used human monocytes (THP-1 cell line) as target cells and expression of co-stimulatory molecules (CD54 and CD80) and immune-activating cytokines (IL-8, RANTES and TNFα) as assay readouts. These molecules play major role in the innate immune response and are required for effective activation of the adaptive immune system.

Row | Compound | IL-8 | RANTES | TNFα | CD54 | CD80
1 | bacterial lipopolisaccharide [LPS] | 13562.99 | 3217.60 | 866.78 | 3662.56 | 64.12
2 | CC[C@]1(O)C[C@@H]2CN(CCc3c([nH]c4ccccc34)[C@@](C(=O)OC)(c3cc4c(cc3OC)N(C)[C@H]3[C@@](O)(C(=O)OC)[C@H](OC(C)=O)[C@]5(CC)C=CCN6CC[C@]43[C@@H]65)C2)C1 [Vinblastine] | 6543.63 | 4568.01 | 78.47 | 665.18 | 3.89
3 | CN[C@H]1CCc2cc(OC)c(OC)c(OC)c2-c2ccc(OC)c(=O)cc21 [Demecolcine] | 2533.58 | 740.62 | 95.20 | 600.87 | 4.91
4 | COc1cc2c(c(OC)c1OC)-c1ccc(OC)c(=O)cc1[C@@H](NC(C)=O)CC2 [Colchicine] | 7499.42 | 4383.62 | 66.37 | 554.50 | 3.69
5 | CC[C@]1(O)C[C@H]2CN(CCc3c([nH]c4ccccc34)[C@@](C(=O)OC)(c3cc4c(cc3OC)N(C=O)[C@H]3[C@@](O)(C(=O)OC)[C@H](OC(C)=O)[C@]5(CC)C=CCN6CC[C@]43[C@@H]65)C2)C1 [Vincristine] | 8334.51 | 5232.60 | 88.30 | 814.96 | 3.90
